Key:
IbENOD93 gene = assay: Regulation of IbENOD93 expression by plant hormone treatment (real-time PCR); format: in vivo, sweet potato; settings: 3 hours, fibrous roots of single-leaf plantlets, 25° C., dark
Description: To determine the transcriptional regulation of IbENOD93 gene by treatment with auxin (Indole-3-acetic acid; IAA), jasmonic acid (JA), and […] (6-benzylaminopurine; BA), real-time PCR (RT-PCR) was performed using IbENOD93-specific primers (IbENOD93(360)F 5′-[…]-3′ (SEQ ID. NO.: 9) and IbENOD93(512)R 5′-[…]-3′ (SEQ ID. NO.: 10)).
The roots of sweet potato were treated with hormones according to the following method. Sweet potato plantlets bearing a single leaf and petiole were collected from sweet potato plants and incubated in flasks filled with water for 3 weeks. After fibrous roots had developed from the distal end of the petiole, the single-leaf plantlets were incubated in various concentrations of IAA, JA, and BA solutions (0, 50, 100, 200, 500, 1000 μM) at 25° C. in the dark for 3 hours. After the hormone treatment, total RNA was extracted from the fibrous roots using the RNeasy Plant Mini Kit™ (Qiagen) and used for RT-PCR.
Total RNA (5 μg) was used for first-strand cDNA synthesis using the SuperScript III first-strand cDNA synthesis kit (Invitrogen). The resulting cDNA solution was then diluted with 30 μl of TE and used for PCR. Among a total of 20 μl, 1 μl of the synthesized cDNA was used for the RT-PCR, and KAPA SYBR FAST Master mix (KAPABIOSYSTEMS) was used for a final reaction volume of 16 μl. Real-time PCR analysis was performed using the LightCycler 480 quantification system (Roche Diagnostics) according to the manufacturer's instructions. Expression levels were normalized with β-tubulin expression amplified with 5′-[…]-3′ (SEQ ID. NO.: 11) and 5′-[…]-3′ (SEQ ID. NO.: 12) primers. Real-time PCR was performed starting with pre-denaturation at 95° C. for 10 minutes, followed by 45 cycles of denaturation at 95° C. for 10 seconds, annealing at 58° C. for 10 seconds, and extension at 72° C. for 20 seconds. Following the amplification phase, a melting curve analysis was conducted from 65° C. to 97° C. The second derivative maximum method in the LightCycler 480 quantification software (Roche Diagnostics) was used to evaluate the data.

[1] = tested on: MADS-box genes (SRD1, IbMADS1); settings: upon IAA or JA treatment; Noh et al. 2010, Ku et al. 2008; cited from earlier work

Structure (SMILES)	transcript level of IbENOD93 (IbENOD93 gene; 500 μM IAA)	transcript level of MADS-box genes (SRD1, IbMADS1) [1]	transcript level of IbENOD93 (IbENOD93 gene; 200 μM JA)	transcript level of IbENOD93 (IbENOD93 gene; BA at 100 μM or higher)
O=C(O)Cc1c[nH]c2ccccc12 [IAA, Indole-3-acetic acid]	increased sharply	increased sharply		
CC/C=C\C[C@H]1C(=O)CC[C@@H]1CC(=O)O [JA, jasmonic acid]		increased sharply	increased sharply	
c1ccc(CNc2ncnc3nc[nH]c23)cc1 [BA, 6-benzylaminopurine]				increased slightly

Source: US9963712B2, “Gene IbENOD93 and transgenic plants using the same” (Korea University Research and Business Foundation, priority 2014, dated 2018)
